Calls of active or inactive are those of the source. The rule behind the calls is not given here.
How the values were obtained:
Rattus norvegicus [1] = experiment: Neurotoxicity in MES Sprague-Dawley rat model at 30 mg/kg, po measured after 2 hrs; assay type: toxicity, organism-based; design: dose 30 mg/kg, route oral; settings: in vivo
Mus musculus [2] = experiment: Neurotoxicity in 44 mA current-induced seizure albino CF1 mouse model at 100 mg/kg, ip measured after 0.5 hr; assay type: toxicity, organism-based; design: dose 100 mg/kg, route intraperitoneal; settings: in vivo
Mus musculus [3] = experiment: Anticonvulsant activity in ip dosed albino CF1 mouse assessed as protection against 32 mA current-induced seizures; assay type: functional
Mus musculus [4] = experiment: Anticonvulsant activity in albino CF1 mouse assessed as protection against maximal electroshock-induced seizures at 100 mg/kg, ip measured after 1 hr; assay type: functional, organism-based; design: dose 100 mg/kg
Mus musculus [5] = experiment: Neurotoxicity in 32 mA current-induced seizure albino CF1 mouse model at 100 mg/kg, ip measured after 0.5 hr; assay type: toxicity, organism-based; design: dose 100 mg/kg, route intraperitoneal; settings: in vivo
Mus musculus [6] = experiment: Anticonvulsant activity in albino CF1 mouse assessed as protection against iv infusion metrazol-induced seizures measured as clonus at 79 mg/kg, ip (reference value: 31.1 mg/kg); assay type: functional
Mus musculus [7] = experiment: Neurotoxicity in albino CF1 mouse at 100 mg/kg, ip measured after 1 hr; assay type: toxicity, organism-based; design: dose 100 mg/kg, route intraperitoneal; settings: in vivo
Mus musculus [8] = experiment: Anticonvulsant activity in albino CF1 mouse assessed as protection against maximal electroshock-induced seizures at 100 mg/kg, ip measured after 0.5 hr; assay type: functional, organism-based; design: dose 100 mg/kg
Mus musculus [9] = experiment: Anticonvulsant activity in albino CF1 mouse assessed as protection against 44 mA current-induced seizures at 100 mg/kg, ip measured after 0.5 hr; assay type: functional, organism-based; design: dose 100 mg/kg
Mus musculus [10] = experiment: Anticonvulsant activity in albino CF1 mouse assessed as protection against 32 mA current-induced seizures at 100 mg/kg, ip measured after 4 hrs; assay type: functional, organism-based; design: dose 100 mg/kg
Rattus norvegicus [11] = experiment: Neurotoxicity in MES Sprague-Dawley rat model at 30 mg/kg, ip measured after 0.25 hr; assay type: toxicity, organism-based; design: dose 30 mg/kg, route intraperitoneal; settings: in vivo
Mus musculus [12] = experiment: Neurotoxicity in 44 mA current-induced seizure albino CF1 mouse model at 100 mg/kg, ip measured after 2 hrs; assay type: toxicity, organism-based; design: dose 100 mg/kg, route intraperitoneal; settings: in vivo
Mus musculus [13] = experiment: Neurotoxicity in 44 mA current-induced seizure albino CF1 mouse model at 100 mg/kg, ip measured after 4 hrs; assay type: toxicity, organism-based; design: dose 100 mg/kg, route intraperitoneal; settings: in vivo
Rattus norvegicus [14] = experiment: Neurotoxicity in MES Sprague-Dawley rat model at 30 mg/kg, ip measured after 1 hr; assay type: toxicity, organism-based; design: dose 30 mg/kg, route intraperitoneal; settings: in vivo
Rattus norvegicus [15] = experiment: Anticonvulsant activity in Sprague-Dawley rat assessed as protection against maximal electroshock-induced seizures at 30 mg/kg, po measured after 0.5 hr; assay type: functional, organism-based; design: dose 30 mg/kg
Mus musculus [16] = experiment: Anticonvulsant activity in albino CF1 mouse assessed as protection against 32 mA current-induced seizures at 100 mg/kg, ip measured after 0.5 hr; assay type: functional, organism-based; design: dose 100 mg/kg
Mus musculus [17] = experiment: Neurotoxicity in albino CF1 mouse at 100 mg/kg, ip measured after 0.25 hr; assay type: toxicity, organism-based; design: dose 100 mg/kg, route intraperitoneal; settings: in vivo
Mus musculus [18] = experiment: Anticonvulsant activity in albino CF1 mouse assessed as protection against maximal electroshock-induced seizures at 100 mg/kg, ip measured after 4 hrs; assay type: functional, organism-based; design: dose 100 mg/kg
Mus musculus [19] = experiment: Anticonvulsant activity in ip dosed albino CF1 mouse assessed as protection against subcutaneous metrazol-induced seizures; assay type: functional
Mus musculus [20] = experiment: Neurotoxicity in 32 mA current-induced seizure albino CF1 mouse model at 100 mg/kg, ip measured after 2 hrs; assay type: toxicity, organism-based; design: dose 100 mg/kg, route intraperitoneal; settings: in vivo
[21] = Neurotoxicity in ip dosed albino CF1 mouse; assay type: toxicity, organism-based; settings: in vivo
Mus musculus [22] = experiment: Anticonvulsant activity in ip dosed albino CF1 mouse assessed as protection against iv infusion metrazol-induced seizures; assay type: functional, organism-based
Mus musculus [23] = experiment: Anticonvulsant activity in ip dosed corneal kindled albino CF1 mouse seizure model assessed as time to peak effect; assay type: functional
Mus musculus [24] = experiment: Anticonvulsant activity in albino CF1 mouse assessed as protection against iv infusion metrazol-induced seizures measured as twitch at 24 mg/kg, ip (reference value: 28.2 mg/kg); assay type: functional
Mus musculus [25] = experiment: Anticonvulsant activity in albino CF1 mouse assessed as protection against 44 mA current-induced seizures at 100 mg/kg, ip measured after 1 hr; assay type: functional, organism-based; design: dose 100 mg/kg
Mus musculus [26] = experiment: Anticonvulsant activity in ip dosed albino CF1 mouse assessed as protection against 6 Hz current-induced seizures measured as time to peak effect; assay type: functional
Rattus norvegicus [27] = experiment: Neurotoxicity in MES Sprague-Dawley rat model at 30 mg/kg, ip measured after 2 hrs; assay type: toxicity, organism-based; design: dose 30 mg/kg, route intraperitoneal; settings: in vivo
Mus musculus [28] = experiment: Anticonvulsant activity in albino CF1 mouse assessed as protection against iv infusion metrazol-induced seizures measured as twitch at 79 mg/kg, ip (reference value: 28.2 mg/kg); assay type: functional
Rattus norvegicus [29] = experiment: Anticonvulsant activity in Sprague-Dawley rat assessed as protection against maximal electroshock-induced seizures at 30 mg/kg, ip measured after 1 hr; assay type: functional, organism-based; design: dose 30 mg/kg
Mus musculus [30] = experiment: Neurotoxicity in albino CF1 mouse at 100 mg/kg, ip measured after 4 hrs; assay type: toxicity, organism-based; design: dose 100 mg/kg, route intraperitoneal; settings: in vivo
Mus musculus [31] = experiment: Neurotoxicity in 32 mA current-induced seizure albino CF1 mouse model at 100 mg/kg, ip measured after 4 hrs; assay type: toxicity, organism-based; design: dose 100 mg/kg, route intraperitoneal; settings: in vivo
Mus musculus [32] = experiment: Neurotoxicity in 44 mA current-induced seizure albino CF1 mouse model at 100 mg/kg, ip measured after 0.25 hr; assay type: toxicity, organism-based; design: dose 100 mg/kg, route intraperitoneal; settings: in vivo
Mus musculus [33] = experiment: Anticonvulsant activity in albino CF1 mouse assessed as protection against 32 mA current-induced seizures at 100 mg/kg, ip measured after 2 hrs; assay type: functional, organism-based; design: dose 100 mg/kg
Mus musculus [34] = experiment: Anticonvulsant activity in ip dosed corneal kindled albino CF1 mouse seizure model; assay type: functional
Mus musculus [35] = experiment: Anticonvulsant activity in albino CF1 mouse assessed as protection against iv infusion metrazol-induced seizures measured as time to twitch at 79 mg/kg, ip (reference value: 26.6 seconds); assay type: functional
[36] = Protective index, ratio of TD50 for neurotoxicity in ip dosed albino CF1 mouse to ED50 for anticonvulsant activity in ip dosed MES albino CF1 mouse model; assay type: toxicity, organism-based; settings: in vivo, read-out: Ratio TD50/ED50
Mus musculus [37] = experiment: Neurotoxicity in albino CF1 mouse at 100 mg/kg, ip measured after 0.5 hr; assay type: toxicity, organism-based; design: dose 100 mg/kg, route intraperitoneal; settings: in vivo
Rattus norvegicus [38] = experiment: Neurotoxicity in MES Sprague-Dawley rat model at 30 mg/kg, po measured after 0.25 hr; assay type: toxicity, organism-based; design: dose 30 mg/kg, route oral; settings: in vivo
Rattus norvegicus [39] = experiment: Anticonvulsant activity in ip dosed Sprague-Dawley rat assessed as protection against maximal electroshock-induced seizures measured as time to peak effect; assay type: functional
Rattus norvegicus [40] = experiment: Neurotoxicity in MES Sprague-Dawley rat model at 30 mg/kg, po measured after 1 hr; assay type: toxicity, organism-based; design: dose 30 mg/kg, route oral; settings: in vivo
Mus musculus [41] = experiment: Anticonvulsant activity in albino CF1 mouse assessed as protection against 32 mA current-induced seizures at 100 mg/kg, ip measured after 1 hr; assay type: functional, organism-based; design: dose 100 mg/kg
[42] = Protective index, ratio of TD50 for neurotoxicity in ip dosed Sprague-Dawley rat to ED50 for anticonvulsant activity in ip dosed MES Sprague-Dawley rat model; assay type: toxicity, organism-based; settings: in vivo, read-out: Ratio TD50/ED50
Mus musculus [43] = experiment: Anticonvulsant activity in albino CF1 mouse assessed as protection against iv infusion metrazol-induced seizures measured as time to clonus at 79 mg/kg, ip (reference value: 29.4 seconds); assay type: functional
Mus musculus [44] = experiment: Neurotoxicity in 44 mA current-induced seizure albino CF1 mouse model at 100 mg/kg, ip measured after 1 hr; assay type: toxicity, organism-based; design: dose 100 mg/kg, route intraperitoneal; settings: in vivo
Rattus norvegicus [45] = experiment: Neurotoxicity in MES Sprague-Dawley rat model at 30 mg/kg, ip measured after 4 hrs; assay type: toxicity, organism-based; design: dose 30 mg/kg, route intraperitoneal; settings: in vivo
Rattus norvegicus [46] = experiment: Anticonvulsant activity in Sprague-Dawley rat assessed as protection against maximal electroshock-induced seizures at 30 mg/kg, ip measured after 0.5 hr; assay type: functional, organism-based; design: dose 30 mg/kg

SMILES: O=C1NC(=O)[C@@H]2CCCN2[C@H]1c1cccc(OC(F)(F)F)c1
- Activity (Rattus norvegicus [1]): Non-toxic
- Activity (Mus musculus [2]): Toxic
- ED50 (Mus musculus [3]): 176 µmol/kg
- Activity (Mus musculus [4]): Active
- Activity (Mus musculus [5]): Non-toxic
- Activity (Mus musculus [6]): 97.2 mg/kg
- Activity (Mus musculus [7]): Non-toxic
- Activity (Mus musculus [8]): Active
- Activity (Mus musculus [9]): Active
- Activity (Mus musculus [10]): inactive
- Activity (Rattus norvegicus [11]): Non-toxic
- Activity (Mus musculus [12]): Non-toxic
- Activity (Mus musculus [13]): Non-toxic
- Activity (Rattus norvegicus [14]): Non-toxic
- Activity (Rattus norvegicus [15]): inactive
- Activity (Mus musculus [16]): Active
- Activity (Mus musculus [17]): Toxic
- Activity (Mus musculus [18]): inactive
- ED50 (Mus musculus [19]): 200 µmol/kg
- Activity (Mus musculus [20]): Non-toxic
- TD50 [21]: 252 µmol/kg
- Activity (Mus musculus [22]): Dose-dependent effect
- Time (Mus musculus [23]): 0.25 h
- Activity (Mus musculus [24]): 35.2 mg/kg
- Activity (Mus musculus [25]): Active
- Time (Mus musculus [26]): 0.25 h
- Activity (Rattus norvegicus [27]): Non-toxic
- Activity (Mus musculus [28]): 64.8 mg/kg
- Activity (Rattus norvegicus [29]): Active
- Activity (Mus musculus [30]): Non-toxic
- Activity (Mus musculus [31]): Non-toxic
- Activity (Mus musculus [32]): Toxic
- Activity (Mus musculus [33]): inactive
- ED50 (Mus musculus [34]): 171 µmol/kg
- Time (Mus musculus [35]): 63.1 s
- selectivity ratio [36]: 3.2
- Activity (Mus musculus [37]): Toxic
- Activity (Rattus norvegicus [38]): Non-toxic
- Time (Rattus norvegicus [39]): 0.25 h
- Activity (Rattus norvegicus [40]): Non-toxic
- Activity (Mus musculus [41]): Active
- selectivity ratio [42]: 2.8
- Time (Mus musculus [43]): 94.6 s
- Activity (Mus musculus [44]): Non-toxic
- Activity (Rattus norvegicus [45]): Non-toxic
- Activity (Rattus norvegicus [46]): Active

From ChEMBL document CHEMBL3352057, “Novel fluorinated pyrrolo[1,2-a]pyrazine-2,6-dione derivatives: synthesis and anticonvulsant evaluation in animal models of epilepsy” (Bioorg Med Chem, 2014)
